Data: US4298739A, “Novel carbostyril derivatives” (priority 1977, dated 1981)

Experiments:
[1] = system: rabbit platelet; assay: ADP-induced aggregation in rabbit platelets (AG-II Aggregometer); type: cell-based; conditions: Oryctolagus cuniculus, Platelet, read-out: Inhibition effect on ADP-induced aggregation in rabbit platelet; for inhibition at 100 µM (stock): 10^-4 mole; for inhibition at 10 µM (stock): 10^-5 mole; for inhibition at 1 µM (stock): 10^-6 mole
Experimental: (§1) The platelet aggregation inhibitory effect is measured by using AG-II Aggregometer (manufactured by Bryston Manufacturing Co.). The blood sample used for the test is a 1/9 (by volume) mixture of sodium citrate and whole blood collected from rabbit. Said sample is subjected to 10-minute centrifugal separation at 1,000 r.p.m. to obtain a platelet rich plasma (PRP). The thus obtained PRP is separated, and the remaining blood sample is further subjected to 15-minute centrifugal separation at 3,000 r.p.m. to obtain a platelet poor plasma (PPP).
(§2) The number of platelets in the PRP is counted by the Brecher-Clonkite Method, and the PRP is diluted with the PPP to prepare a PRP sample with platelet concentration of 300,000/mm^3 for the adenosine diphosphate (ADP)-induced aggregation test. There is also prepared a PRP sample with platelet concentration of 450,000/mm^3 for the collagen-induced aggregation test.
(§3) 0.6 ml of said PRP sample is added into 0.01 ml of a solution of a test compound of a predetermined concentration and the mixture is placed in a 37° C. thermostat for one minute. Then 0.07 ml of an ADP or collagen solution is added to the mixture. Transmittance of this mixture is determined and the change of transmittance is recorded by using the aggregometer at stirrer speed of 1,100 r.p.m. In this test, Auren Beronal buffer (pH 7.35) is used for the preparation of the ADP or collagen solution. ADP is adjusted to a concentration of 7.5×10^-5 M, and the collagen solution is prepared by triturating 100 mg of collagen with 5 ml of said buffer and the supernatant is used as collagen inducer. Adenosine and acetylsalicylic acid are used as controls for the ADP-induced aggregation test and the collagen-induced aggregation test, respectively. The platelet aggregation inhibitory effect is measured in terms of percent inhibition with respect to the aggregation rate of the controls. The aggregation rate is calculated from the following formula:
(§4) Aggregation rate=(c-a)/(b-a)×100
(§5) b: transmittance of PRP containing a test compound and an aggregation inducer
(§6) The inhibitory effect of the tested compounds on collagen-induced aggregation in rabbit platelets is shown in Table 1, and such effect on ADP-induced aggregation is shown in Table 2. The compounds tested are as follows.

[2] = Acute toxicity test, oral administration to mice; type: in vivo; conditions: mouse, in vivo, Male mice
Experimental: The test compounds were administered orally to the mice and LD50 (mg/kg) of the compounds was determined.

[3] = system: rabbit platelet; assay: Collagen-induced aggregation in rabbit platelets (AG-II Aggregometer); type: cell-based; conditions: Oryctolagus cuniculus, Platelet, read-out: Inhibition effect on collagen induced aggregation in rabbit platelet; for inhibition at 100 µM (stock): 10^-4 mole; for inhibition at 10 µM (stock): 10^-5 mole; for inhibition at 1 µM (stock): 10^-6 mole
Experimental: as §1, §2, §3, §4, §5, §6

Compound | inhibition at 100 µM (stock) [1] | inhibition at 10 µM (stock) [1] | inhibition at 1 µM (stock) [1] | LD50 [2] | inhibition at 100 µM (stock) [3] | inhibition at 10 µM (stock) [3] | inhibition at 1 µM (stock) [3]
O=C(CCCOc1ccc2[nH]c(=O)ccc2c1)N(c1ccccc1)C1CCCCC1 [compound 17, 6-[3-(N-Cyclohexylanilinocarbonyl)propoxy]carbostyril] | 82.5% | 38.7% | 12.3% | > 1000 mg/kg | 91.5% | 53.8% | 16.7%
O=C(CCCOc1ccc2c(c1)CCC(=O)N2)Nc1ccccc1 [compound 19, 6-[3-(Anilinocarbonyl)propoxy]-3,4-dihydrocarbostyril] | 24.6% | 16.2% | – | > 1000 mg/kg | 93.8% | 17.4% | –
CCCCN(C(=O)CCCCOc1ccc2c(c1)CCC(=O)N2)C1CCCCC1 [compound 22, 6-[4-(N-Butyl-N-cyclohexylaminocarbonyl)buthoxy]-3,4-dihydrocarbostyril] | 71.5% | 32.7% | 10.5% | > 1000 mg/kg | 85.6% | 78.5% | 28.7%
O=C1CCc2cc(OCCCC(=O)N(c3ccccc3)c3ccccc3)ccc2N1 [compound 24, 6-[3-(N,N-Diphenylaminocarbonyl)propoxy]-3,4-dihydrocarbostyril] | 43.2% | 22.3% | 13.4% | > 1000 mg/kg | 82.7% | 43.5% | 15.5%
CC(C)(Oc1ccc2c(c1)CCC(=O)N2)C(=O)O [compound 38, 6-(1-Methyl-1-carboxyethoxy)-3,4-dihydrocarbostyril, reference compound] | 10% | 5% | 3% | 800 to 1000 mg/kg | 5% | 3% | 0%
O=C(O)CCCOc1ccc2[nH]c(=O)ccc2c1 [compound 39, 6-(3-Carboxypropoxy)carbostyril, reference compound] | 52% | 23% | 5% | > 1000 mg/kg | 28% | 15% | 0%
O=C1CCc2cc(OCCCC(=O)OC3CCCCC3)ccc2N1 [compound 40, 6-(3-Cyclohexyloxycarbonylpropoxy)-3,4-dihydrocarbostyril, reference compound] | 28% | 16% | 7% | 500 to 800 mg/kg | 12% | 8% | 0%
CC(C)NC(=O)CCOc1cccc2c1CCC(=O)N2 [compound 41, 5-(N-Isopropylaminocarbonylethoxy)-3,4-dihydrocarbostyril, reference compound] | 18% | 13% | 7% | 500 to 800 mg/kg | 17% | – | 0%
O=C1CCc2c(cccc2OCC(=O)N2CCOCC2)N1 [compound 42, 5-(Morpholinocarbonylmethoxy)-3,4-dihydrocarbostyril, reference compound] | 13% | 6% | 0% | 400 to 600 mg/kg | 5% | 0% | 0%
CN(C)C(=O)COc1cccc2c1CCC(=O)N2 [compound 43, 5-(N,N-dimethylaminocarbonylmethoxy)-3,4-dihydrocarbostyril, reference compound] | 22% | 17% | 8% | 500 to 700 mg/kg | 27% | 13% | 0%
